Assay results from patent US9364496B2 (ONCOGENEX TECHNOLOGIES INC., priority 2013, dated 2016).
“And” between values parts separate entries of the source, which are not always exact repeats. Equal entries are not always repeated. “Also recorded” adds a separate entry of the source. Where two headings read alike, the source gives them in different places. Oligonucleotides are written 5' to 3', each unit as a sugar letter and its base; * is a phosphorothioate linkage, no mark a phosphodiester; rarer units and linkages stand in square brackets, end groups in braces. Plain capitals give the bases only. e = 2'-O-(2-methoxyethyl) (MOE); [5mC] = 5-methylcytosine; d = 2'-deoxy (DNA)

How the values were obtained:
[1] = test system: RPMI 8226 (human myeloma) xenograft; assay: In vivo activity of custirsen with Velcade, RPMI 8226 xenograft (Example 14); conditions: for weight / Δ weight / volume / Δ volume / % of baseline / Δ %: later day (day not given); for volume / Δ volume: tumor; for % of baseline / Δ %: weight
Description: The cells were implanted subcutaneously into female SCID mice with 7×10^6 cells inoculum.
Tumors and body weights were measured weekly until termination of the study on day 71. Response to treatment was evaluated for tumor growth inhibition (TGI) and tumor growth delay (TGD).
70 CB.17 SCID female mice, 4-6 weeks old, 16-20 grams, obtained from Harlan animal breeding center.
Sample from the cell suspension was taken for counting (0.3 ml in duplicates for CEDEX) before spun down. Cell viability was 85.6% and live cell concentration was 167×10^5 cells/ml. The pellet was resuspended in HBSS to a final volume of 8 ml.
Tumors were implanted subcutaneously with RPMI-8226 cells into the right flank of the mouse on Day 0. Each animal received a s.c. injection 7×10^6 cells in 0.1 ml suspension. On day 20, mice were sorted by the optimal tumor volume ([…]) and were allocated into 5 groups of 10 mice. Mice were individually tagged and their tumor volume and body weight were monitored weekly during the study. Tumor size was measured by caliper and calculated using the formula: […]
The treatment started on […] (0.2 ml per 20 grams v/w) and continued till day 52, after which the remaining mice were left for observation until day 71.

ovarian cancer = assay type: in vivo, human; conditions: each group; loading doses then custirsen with a chemotherapeutic agent
From the text: At least 50 ovarian cancer patients are separated into two groups.

clusterin = conditions: cited from earlier work
[2] = Phase I dose-escalation Study OGX-011-01, custirsen with neoadjuvant hormone therapy, prostate cancer patients; conditions: 40 mg to 640 mg custirsen, repeated doses with neoadjuvant hormone therapy
[3] = in vivo
bladder cancer = assay type: in vivo, human; conditions: each group; loading doses then custirsen with a chemotherapeutic agent
From the text: At least 50 bladder cancer patients are separated into two groups.

[4] = human, in vivo
[5] = OGX 40 ip qd*5, twk, group Mean, n 10
[6] = OGX 40 ip qd*5, twk, group Mean, n 10, vs Day 20
[7] = OGX 40 ip qd*5, twk, individual mouse, listed as OGX
[8] = OGX 40 ip qd*5, twk, individual mouse, vs Day 20, listed as OGX
[9] = OGX 40 ip qd*5, twk, group mean

In the case of “Custirsen: anti-clusterin antisense oligonucleotide CAGCAGCAGAGTCTTCATCAT, phosphorothioate backbone, 2′-O-methoxyethyl at nucleotides 1-4 and 18-21, 5-methylcytosines at 1, 4, 19 (antisense e[5mC]*eA*eG*e[5mC]*dA*dG*dC*dA*dG*dA*dG*dT*dC*dT*dT*dC*dA*eT*e[5mC]*eA*eT; listed as Homo sapiens)”, the “Day 20 volume” value [1, 5] is reported as 142.8, the “Day 20 weight” value [1, 5] is reported as 18.5 and the “Day 27 % of baseline (weight)” value [1, 5] is reported as 102.6%. The “Day 27 volume” value [1, 5] was 219.2, the “Day 27 weight” value [1, 5] was 19.0 and the “Day 34 % of baseline (weight)” value [1, 5] was 95.3%. For the same substance, the “Day 34 volume” value [1, 5] was 263.1, the “Day 34 weight” value [1, 5] was 17.7 and the “Day 27 Δ % (weight)” value [1, 6] was 2.6%. For the same substance, the “Day 27 Δ volume” value [1, 6] was 76.4, the “Day 27 Δ weight” value [1, 6] was 0.4 and the “Day 34 Δ % (weight)” value [1, 6] was −4.7%. The “Day 34 Δ volume” value [1, 6] was 120.3, the “Day 34 Δ weight” value [1, 6] was −0.8 and the “Day 20 volume” value [1, 7] was 119 and 124 and 125 and 139 and 141 and 145 and 151 and 155 and 162 and 169. The “Day 20 weight” value [1, 7] was 16.1 and 17.7 and 17.1 and 20.6 and 19.7 and 18.6 and 18.4 (2×) and 20.0 and 18.9, the “Day 27 % of baseline (weight)” value [1, 7] was 113.2% and 102.5% and 100.3% and 98.7% and 102.4% and 101.7% and 100.5% and the “Day 27 volume” value [1, 7] was 96 and 207 and 171 and 249 and 222 and 246 and 319 and 193 and 217 and 271. The “Day 27 weight” value [1, 7] was 18.2 (2×) and 18.0 and 20.8 and 19.7 and 18.4 and 18.9 and 20.3 and 18.6 and 19.0, the “Day 34 % of baseline (weight)” value [1, 7] was 84.3% and 98.1% and 99.6% and 94.5% and 97.3% and 96.5% and 98.9% and 95.3% and 93.3% and 95.4% and the “Day 34 volume” value [1, 7] was 98 and 244 and 223 and 257 and 305 and 336 and 371 and 220 and 266 and 312. The “Day 34 weight” value [1, 7] was 13.5 and 17.4 and 17.1 and 19.5 and 19.1 and 18.0 (2×) and 18.2 and 19.0 and 17.2, the “Day 41 % of baseline (weight)” value [1, 7] was 100.4% and 100.3% and 99.5% and 95.8% and 100.1% and 104.4% and 101.6% and the “Day 41 volume” value [1, 7] was 454 and 474 and 560 and 267 and 320 and 457 and 410 and 295 and 322. The “Day 41 weight” value [1, 7] was 19.8 and 18.7 and 19.5 and 19.9 and 17.6 and 18.9 and 18.8 and 17.9 and 20.9, the “Day 45 % of baseline (weight)” value [1, 7] was 104.1% and 102.7% and 111.4% and 101.5% and 108.1% and 109.8% and the “Day 45 volume” value [1, 7] was 587 and 584 and 826 and 467 and 428 and 490 and 511 and 272 and 579. For the same substance, the “Day 45 weight” value [1, 7] was 20.5 and 19.1 (2×) and 20.6 and 21.1 and 18.7 and 19.2 and 18.8 and 21.9, the “Day 27 Δ % (weight)” value [1, 8] was 13.2% and 2.5% and 4.8% and 1.1% and 0.3% and −1.3% and 2.4% and 1.7% and 0.8% and 0.5% and the “Day 27 Δ volume” value [1, 8] was −23.1 and 84.0 and 46.2 and 110.4 and 81.2 and 100.3 and 168.8 and 38.8 and 55.3 and 102.6. For the same substance, the “Day 27 Δ weight” value [1, 8] was 2.1 and 0.4 (2×) and 0.8 and 0.2 (2×) and 0.1 (2×) and −0.3 and 0.3, the “Day 34 Δ % (weight)” value [1, 8] was −15.7% and −1.9% and −0.4% and −5.5% and −2.7% and −3.5% and −1.1% and −4.7% and −6.7% and −4.6% and the “Day 34 Δ volume” value [1, 8] was −20.6 and 120.3 and 97.9 and 117.8 and 163.9 and 190.8 and 219.9 and 65.4 and 104.3 and 142.9. For the same substance, the “Day 34 Δ weight” value [1, 8] was −2.5 and −0.3 and −0.1 and −1.1 and −0.5 and −0.6 and −0.2 and −0.9 (2×) and −1.2, the “Day 41 Δ % (weight)” value [1, 8] was 0.4% and 0.3% and 5.9% and −0.5% and −4.2% and 0.1% and 6.0% and 4.4% and 1.6% and the “Day 41 Δ volume” value [1, 8] was 313.0 and 328.4 and 409.6 and 112.3 and 157.8 and 288.2 and 286.2 and 170.4 and 183.5. The “Day 41 Δ weight” value [1, 8] was 0.1 (2×) and 1.1 (2×) and −0.1 and −0.8 and 0.0 and 0.8 and 0.3, the “Day 45 Δ % (weight)” value [1, 8] was 4.1% and 2.7% and 11.4% and 5.6% and 1.5% and 1.3% and 8.1% and 9.8% and 6.1% and the “Day 45 Δ volume” value [1, 8] was 446.1 and 439.0 and 675.2 and 313.0 and 266.0 and 321.7 and 388.0 and 147.2 and 440.5. For the same substance, the “Day 45 Δ weight” value [1, 8] was 0.8 and 0.5 and 2.1 and 1.1 and 0.3 and 0.2 and 1.4 and 1.7 and 1.3, the weight [1, 9] was 20.5 and the Δ weight [1, 9] was 1.6. The volume [1, 9] was 1717.4, the Δ volume [1, 9] was 1572.6 and the “% of baseline” value [1, 9] was 108.3%. The Δ % [1, 9] was 8.3%, the weight [1, 7] was 21.04 and 22.19 and 19.81 and 20.11 and the Δ weight [1, 7] was 1.4 (2×) and 2.2 and 1.2. For the same substance, the volume [1, 7] was 2185 and 1918 and 1519 and 2426, the Δ volume [1, 7] was 2043.7 and 1763.0 and 1357.1 and 2257.1 and the “% of baseline” value [1, 7] was 106.9% and 111.2% and 107.7% and 106.4%. The Δ % [1, 7] was 6.9% and 11.2% and 7.7% and 6.4%, the mice died ([1]; custirsen 40 mg/kg group, day 34) was “one” and the “injections given before treatment was stopped due to toxicity” value ([1]; custirsen 40 mg/kg, both groups (5 consecutive + 2 on the next week)) was 7 injections. The “tumor growth inhibition by the end of the study” value ([1]; custirsen 40 mg/kg, either alone or in combination) was “significantly inhibited tumor growth”, the “cancer condition of patients” value (ovarian cancer) was “improves” and the expression of clusterin (clusterin) was “potently regulated the expression of clusterin; also recorded: potently reduces the expression of clusterin”. The “sensitization of cancer cells to chemotherapy” value (clusterin; human prostate, breast, ovarian, lung, renal, bladder, and melanoma cells) was “sensitizes”, the “dose limiting toxicities, deaths, AEs leading to withdrawal” value [2] was “No dose limiting toxicities, deaths, or adverse events (AEs) leading to withdrawal were reported” and the INR values [3] was at most 1.5. The “reports of grade 2 toxicity for PTT” value [3] was 2 reports, the “cancer condition of patients” value (bladder cancer) was “improves” and the INR values [4] was at most 1.5. For the same substance, the “grade 1 increase in PTT, number” value [4] was 1, the hepatic transaminase elevations [4] was “Grade 1 and 2” and the “incidence of elevated liver function tests (ELFTs)” value [4] was “higher incidence”.
